Data set [1] in a line: Metabolic stability in human liver microsomes. The format is in vitro ADME. Conditions: pH 7.4, 1 μM compound, 0.5 mg/mL protein. Here is the method: (§1) (2) Metabolic Stability Evaluation Experiments in Microsome:
(§2) 2) Preparation of phosphate buffer (100 mM, pH 7.4): 150 mL of pre-formulated 0.5 M potassium dihydrogen phosphate was taken and mixed with 700 mL of 0.5 M dipotassium hydrogen phosphate solution, and the pH of the mixture was adjusted to 7.4 with 0.5 M dipotassium hydrogen phosphate solution. Before use it was diluted by 5 times with ultrapure water, and magnesium chloride was added to obtain the phosphate buffer (100 mM), which contains 100 mM potassium phosphate, 3.3 mM magnesium chloride, and a pH of 7.4. […] 4) Preparation of stop solution: The stop solution was an acetonitrile solution containing 50 ng/mL propranolol hydrochloride and 200 ng/mL tolbutamide (internal standard). […] 6) Incubation of the sample: The stock solutions of the corresponding compounds were diluted to 0.25 mM with an aqueous solution containing 70% acetonitrile, which is used as a working solution and is ready for use. 398 μL of human liver microsomes dilution or rat liver microsome dilution was added to 96-well incubation plates (N=2), and 2 μL of 0.25 mM working solutions were added respectively, and evenly mixed. 7) Determination of metabolic stability: 300 μL of pre-cooled stop solution was added to each well of a 96-well deep well plate, which was placed on ice as a stop plate. The 96-well incubation plate and the NADPH regeneration system were placed in a 37° C. water bath, shaken at 100 rpm, and pre-incubated for 5 min. 80 μL of the incubation solution was taken from each well of the incubation plate, added to the stop plate, evenly mixed, and 20 μL of the NADPH regeneration system solution was added as 0 minute sample. Then, 80 μL of the NADPH regeneration system solution was added to each well of the incubation plate to start the reaction and start timing. […] 100 μL of the reaction solutions were taken at 10, 30, and 90 min, respectively, added to the stop place, and the reaction was terminated by vortexing for 3 min. The plate was centrifuged at 5000×g for 10 min at 4° C. 100 μL of the supernatant was taken and added into a 96-well plate to which 100 μL of distilled water was previously added, evenly mixed, and samples were analyzed by LC-MS/MS. 8) Data analysis: The peak area of the corresponding compounds and the internal standard was detected by LC-MS/MS system, and the ratio of the peak area of the compounds to the internal standard was calculated.

A further data set has as its target BTK (Homo sapiens (Human), UniProt Q06187). The data set can be described thus: Kinase inhibition test (HTRF). The format is biochemical. The conditions noted are these: 1 nM BTK, 20 μM ATP. Here is the method:
(1) Kinase Inhibition Test
1) Compound dilution: The test compounds were dissolved in DMSO to make a 10 mM stock solution. […] 2) Kinase assay: in a 10 μL reaction system (containing buffer 50 mM Hepes (pH 7.5), 5 mM MgCl2, 0.01 mM Na3VO4, 1% BSA) in a 384-well plate, 1 nM BTK, 1 μM biotin-TK peptide (from HTRF-TK kit) and 20 μM ATP were incubated at 23° C. for 90 minutes.
A general note: TR-FRET usually uses a lanthanide donor and a delayed reading to cut background.

The subject of another data set is RAMOS. Description: RAMOS IC50. The format is cell-based. The conditions noted are these: Homo sapiens.
Data set [2] can be described thus: Metabolic stability in rat liver microsomes. The format is in vitro ADME, SD rat. Conditions: Sprague-Dawley, pH 7.4, 1 μM compound, 0.5 mg/mL protein. Here is the method: as §1, §2
(Microsomes from liver hold many membrane-bound enzymes, among them those of drug oxidation.)

The next data set is described as follows: in vivo. The conditions noted are these: male, Sprague-Dawley, rat.
The conditions of data set [3]: male, Sprague-Dawley, rat, in vivo.
Data set [4] in a line: Pharmacokinetic experiments in rats. The conditions noted are these: male, Sprague-Dawley, rat, in vivo.

Sequence of BTK (Q06187 whole entry): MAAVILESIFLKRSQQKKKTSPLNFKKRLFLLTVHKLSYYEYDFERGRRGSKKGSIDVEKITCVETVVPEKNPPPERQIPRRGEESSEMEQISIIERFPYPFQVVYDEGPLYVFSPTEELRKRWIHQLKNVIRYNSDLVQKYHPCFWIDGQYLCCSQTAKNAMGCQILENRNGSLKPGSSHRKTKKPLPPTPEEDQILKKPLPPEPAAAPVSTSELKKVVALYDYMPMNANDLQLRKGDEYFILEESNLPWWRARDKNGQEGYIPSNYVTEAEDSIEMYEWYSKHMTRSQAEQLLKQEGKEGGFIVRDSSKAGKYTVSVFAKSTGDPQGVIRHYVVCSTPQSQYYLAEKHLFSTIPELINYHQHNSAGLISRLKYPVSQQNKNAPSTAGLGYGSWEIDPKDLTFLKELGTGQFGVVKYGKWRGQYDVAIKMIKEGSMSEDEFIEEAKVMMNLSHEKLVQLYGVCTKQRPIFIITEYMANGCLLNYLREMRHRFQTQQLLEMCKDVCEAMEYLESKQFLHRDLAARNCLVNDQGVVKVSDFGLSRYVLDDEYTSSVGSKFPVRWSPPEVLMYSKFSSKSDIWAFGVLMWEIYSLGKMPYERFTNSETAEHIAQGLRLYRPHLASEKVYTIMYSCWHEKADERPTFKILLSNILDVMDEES

Consider `C=CC(=O)N1CCC[C@@H](c2cn(-c3ccc(Oc4ccccc4)cc3)c3c(N)ncnc23)C1` [Example 3, (S)-1-(3-(4-amino-5-(4-phenoxyphenyl)-5H-pyrrolo[3,2-d]pyrimidin-7-yl)piperidin-1-yl)prop-2-en-1-one], for which, in data set [1], the half-life at 1 μM stood at 1.3 min and the microsomal CLint at 1 μM was determined as 1100 µL/min/mg. At BTK, this compound displayed an IC50 below 1 nM. Also, the half-maximal inhibitory concentration (IC50) in the data set with RAMOS was below 100 nM.
Consider `C=CC(=O)N1CCC[C@H](c2cn(-c3ccc(Oc4ccccc4)cc3)c3c(N)ncnc23)C1` [Example 4, (R)-1-(3-(4-amino-5-(4-phenoxyphenyl)-5H-pyrrolo[3,2-d]pyrimidin-7-yl)piperidin-1-yl)prop-2-en-1-one], for which the half-life at 1 μM in data set [1] was 3.5 min; in data set [2], 2.9 min. Besides, the intrinsic clearance (microsomal CLint) at 1 μM was found to be 399 µL/min/mg in data set [1] and 483 µL/min/mg in data set [2]. Besides, the IC50 was below 1 nM against BTK and below 100 nM with RAMOS.
On to `C=CC(=O)N1CCC[C@@H](c2nn(-c3ccc(Oc4ccccc4)cc3)c3c(N)ncnc23)C1` [Example 5, (R)-1-(3-(7-amino-1-(4-phenoxyphenyl)-1H-pyrazolo[4,3-d]pyrimidin-3-yl)piperidin-1-yl)prop-2-en-1-one], for which, in data set [1], the half-life at 1 μM is 1.5 min and the intrinsic clearance (microsomal CLint) at 1 μM came out at 922 µL/min/mg. This compound showed a half-inhibitory concentration (IC50) against BTK below 1 nM. This compound also came in with an IC50 in the data set with RAMOS below 100 nM.
As to `C=CC(=O)N1CCC[C@H](c2nn(-c3ccc(Oc4ccccc4)cc3)c3c(N)ncnc23)C1` [Example 6, (S)-1-(3-(7-amino-1-(4-phenoxyphenyl)-1H-pyrazolo[4,3-d]pyrimidin-3-yl)piperidin-1-yl)prop-2-en-1-one], the figures for the half-life at 1 μM in data set [1] and in data set [2] were 12.5 min and 4.1 min, respectively. In addition, the results for the intrinsic metabolic clearance (microsomal CLint) at 1 μM in data set [1] and in data set [2] were 111 µL/min/mg and 338 µL/min/mg, respectively. The IC50 at BTK was below 1 nM; in the data set with RAMOS it was below 100 nM.
For the compound `C=CC(=O)N1CCC[C@@H](c2nc(-c3ccc(Oc4ccccc4)cc3)c3c(N)nccn23)C1` [Example 7, (R)-1-(3-(8-amino-1-(4-phenoxyphenyl)imidazo[1,5-a]pyrazin-3-yl)piperidin-1-yl)prop-2-en-1-one], in “in vivo” (iv, 0.5 mg/kg), the AUC(0-t) was 401 ng·h/mL, the peak concentration (Cmax) was found to be 966 ng/mL and the Tmax was 4.8 min. Further, in the data set “in vivo” (po, 10 mg/kg), the area under the curve AUC(0-t) stood at 931 ng·h/mL, the maximum concentration (Cmax) was 365 ng/mL and the Tmax was determined as 40.2 min. In data set [1], the half-life at 1 μM is 5.7 min and the intrinsic clearance (microsomal CLint) at 1 μM worked out at 243 µL/min/mg. The same compound came in with a F in data set [3] of 23.20%. On BTK, this compound registered an IC50 below 1 nM. This compound displayed an IC50 with RAMOS below 100 nM. In data set [2], the half-life at 1 μM stood at 2.4 min and the intrinsic clearance (microsomal CLint) at 1 μM amounted to 576 µL/min/mg.
With `C=CC(=O)N1CCC[C@@H](n2nc(-c3ccc(Oc4ccccc4)cc3)c3c(N)ncnc32)C1` [Ibrutinib], in data set [4] (iv, 0.5 mg/kg), the AUC(0-t) is 437 ng·h/mL, the concentration peaked (Cmax) at 1230 ng/mL and the Tmax turned out to be 4.8 min. In addition, in data set [4] (po, 10 mg/kg), the exposure AUC(0-t) was found to be 727 ng·h/mL, the highest level (Cmax) was 250 ng/mL and the Tmax is 30 min. The half-inhibitory concentration (IC50) in the data set on RAMOS was below 100 nM.

The half-life is how long it takes for the measured level to halve. The term microsomal CLint denotes a measure of how fast metabolising enzymes remove a compound, apart from limits set by blood flow. As usually defined, the IC50 is the concentration that inhibits the measured activity by half. Low values mean inhibition by little substance, high ones a need for much substance. A word on the AUC(0-t): it is the area under the concentration-time curve up to a stated or last time point. Read a low AUC(0-t) as low exposure. Usually Cmax stands for the maximum level reached in the sampled fluid or tissue. Usually Tmax stands for the time at which the peak concentration occurs.

Values taken from patent US11186578B2, “Substituted pyrrolo[3,2-d]pyrimidines and pyrazolo[4,3-d]pyrimidines as tyrosine kinase inhibitors” (Shenzhen TargetRx, Inc., priority 2016, dated 2021).
